Test results: US20190231740A1, “BLOOD FLOW-IMPROVING AGENT, ROYAL JELLY COMPOSITION, AND METHOD FOR PRODUCING ROYAL JELLY COMPOSITION” (YAMADA BEE COMPANY, INC., priority 2016, published 2019)

System: blood flow volume of a hindlimb of the rat
Assay: Hindlimb blood flow volume of rats after oral administration, measured with a two-dimensional laser blood flow meter
Format: in vivo
Conditions: male SD rat hindlimb; for Increase in blood flow volume: one hour after oral administration vs before administration, average of three rats; for Increase in blood flow volume / Change in hindlimb blood flow volume between before and after the administration (in words): 10-hydroxydecanoic acid 120 mg/kg, 10-H2DA 420 mg/kg, Toki-shakuyaku-san 3750 mg/kg; for Change in hindlimb blood flow volume between before and after the administration (in words): one hour after oral administration
Description: As a test animal, a 6 to 8 week-old male rat Slc: SD rat (Japan SLC, Inc.) was used. As test substances, 10-hydroxydecanoic acid (manufactured by Combi-Blocks Inc.), trans-10-hydroxy-2-decenoic acid (referred to as “10-H2DA” hereinafter, manufactured by HANGZOU EASTBIOPHARM CO., LTD.) and Toki-shakuyaku-san (manufactured by TSUMURA & CO.) were used. A 0.5% w/v aqueous solution of methyl cellulose 400 (Wako Pure Chemical Industries, Ltd.) was prepared, and in the aqueous solution, the test substances were each suspended, thereby preparing a 12 mg/mL solution of 10-hydroxydecanoic acid, a 42 mg/ml solution of 10-H2DA and a 375 mg/ml solution of Toki-shakuyaku-san. The test animals were divided into four groups each consisting of three animals, and these groups were referred to as a 10-hydroxydecanoic acid group, a 10-H2DA group, a Toki-shakuyaku-san group and a control group. Using a gastric tube, the respective methyl cellulose aqueous solutions were orally administered to the 10-hydroxydecanoic acid group in such a desired amount that the amount of 10-hydroxydecanoic acid was 120 mg/kg, to the 10-H2DA group in such a desired amount that the amount of 10-H2DA was 420 mg/kg, and to the Toki-shakuyaku-san group in such a desired amount that the amount of Toki-shakuyaku-san was 3750 mg/kg. To the control group, a control substance (0.5% w/v methyl cellulose aqueous solution 10 mL/kg) was orally administered using a gastric tube.
Before the administration of the test substance and after one hour from the administration, a blood flow volume of a hindlimb of the rat was measured in an awaking and non-fixed state. For the measurement, a two-dimensional laser blood flow meter OZ-1 (manufactured by OMEGAWAVE INC.) was used. An increase in the blood flow volume (average value of three rats) based on that before the administration of each of the control group, the 10-hydroxydecanoic acid group, the 10-H2DA group and the Toki-shakuyaku-san group after one hour from the administration is shown in Table 1.

Compound | Increase in blood flow volume [arbitrary unit] | Change in hindlimb blood flow volume between before and after the administration (in words) | Difference in blood flow volume between the control group and the treated group (one hour after oral administration of 120 mg/kg, FIG. 1)
O=C(O)/C=C/CCCCCCCO [10-H2DA, trans-10-hydroxy-2-decenoic acid, reference compound] | 2.2 | a certain increase in the blood flow volume | –
O=C(O)CCCCCCCCCO [10-Hydroxydecanoic acid, 10-hydroxydecanoic acid] | 5.8 | a remarkable increase in the blood flow volume | a significant difference (P=0.01)
